Results from patent US7625887B2, “Receptor agonists” (Takeda Pharmaceutical Company Limited, priority 2003, dated 2009).

How the values were obtained:
NCI-H716 cells [1] = assay: intracellular cAMP production increasing action in NCI-H716 cells; format: cell-based, human; settings: 10 μM, 2 hrs; production amount in TLCA (50 μM) was 100%; Base 11
Experimental: NCI-H716 (ATCC) was suspended in a medium (Dulbecco's Modified Eagle Medium (DMEM, Invitrogen) supplemented with 10% fetal bovine serum (Invitrogen), 100 U/ml penicillin and 100 μg/ml streptomycin), seeded in a 96 well plate, cultured for 2 days and used for cAMP production assay. As a cAMP assay buffer, modified Krebs-Ringer bicarbonate buffer (KRBH, 116 mM NaCl, 4.7 mM KCl, 1.2 mM KH2PO4, 1.2 MM MgSO4, 2.5 mM CaCl2, 25 mM NaHCO3, 24 mM HEPES pH 7.3), supplemented with glucose 5.5 mM, bovine serum albumin (BSA) 0.1%, and 3-isobutyl-1-methylxanthine (IBMX, Sigma) 1 mM, was used. The cells were washed once with cAMP assay buffer. Bile acids (50 μM) diluted with cAMP assay buffer or the compounds of the present invention (10 μM) were added thereto and the cells were incubated for 2 hrs. The culture supernatant was discarded, and the cAMP production amount was measured by cAMP Screen System (ABI). In the Table, Base means non-addition of a test compound.

NCI-H716 cells [2] = assay: GLP-1 secretion from NCI-H716 cell line; format: cell-based, human; settings: 5 μM, 2 hrs; secretion amount in Base was 100%
Experimental: NCI-H716 cells secrete Glucagon-like peptide-1 (GLP-1). GLP-1 is a peptide useful for controlling blood glucose level because it acts on the pancreas to cause secretion of insulin and the like. In the same manner as in Experimental Example 9, NCI-H716 (ATCC) was seeded in a 96 well plate and, after incubation for 2 days, used for the following secretion test. As a buffer for secretion test, modified Krebs-Ringer bicarbonate buffer (KRBH, 116 mM NaCl, 4.7 mM KCl, 1.2 mM KH2PO4, 1.2 mM MgSO4, 2.5 mM CaCl2, 25 mM NaHCO3, 24 mM HEPES, pH 7.3) supplemented with glucose 5.5 mM and BSA 0.1% was used. The cells were washed once with the buffer for secretion test, preincubated at 37° C. under 5% CO2, bile acid diluted with the buffer for secretion test was added and the cells were cultured at 37° C. under 5% CO2 for 2 hrs. The cell culture supernatant was collected, cryopreserved and the GLP-1 content in the supernatant was measured using a GLP-1 measurement EIA kit (Linco) The results are shown in Table 9. In the Table, Base means non-addition of a test compound.

guinea pig TGR5 = assay: cAMP production increasing activity in guinea pig TGR5 expressing CHO cells; format: cell-based; settings: test compound 2 μM; 10 μM lithocholic acid = 100%; average of 3 groups
[3] = system: guinea pig peripheral blood mononuclear cells; assay: TNF secretion in LPS-stimulated guinea pig peripheral blood mononuclear cells; format: cell-based; settings: 16 hrs, test compound 10 μM; non-addition: 160 with LPS, 13 without
Experimental: (§1) The peripheral blood was taken from guinea pig, and mononuclear cell fraction was obtained by a density separation method using Ficoll-Paque PLUS (Amersham Pharmacia). The fraction at a concentration of 1×10^5/well was cultured for 16 hrs in the presence of […] LPS in a 96-well plate upon addition of bile acid or a test compound. The culture supernatant was collected and TNF and IL-6 in the supernatant were quantitated.
The TNF secretion amount in the culture supernatant was measured in the same manner as in Experimental Example 7.

[4] = system: guinea pig peripheral blood mononuclear cells; assay: IL-6 secretion in LPS-stimulated guinea pig peripheral blood mononuclear cells; format: cell-based; settings: 16 hrs, test compound 10 μM; non-addition: 520 with LPS, 32 without
Experimental: as §1
The quantitation of IL-6 in the culture supernatant was performed using IL-6 dependent cell line 7TD1 (RIKEN Institute) with its growth promoting action as an index. First, 7TD1 cells were suspended in a basic medium (RPMI1640 (Invitrogen) supplemented with 1% non-essential amino acid (Invitrogen) and 55 μM 2-mercaptoethanol (Invitrogen)) and seeded in a 96-well plate at a concentration of 2×10^3/well. Immediately after seeding, peripheral blood mononuclear cell culture supernatant diluted with a dilution medium (the above-mentioned basic medium supplemented with 10% FBS) was added and the cells were cultured for 2 days. The IL-6 content was determined by measuring the growth of the 7TD1 cells in the obtained culture product using a CellTiter-Glo (Promega). As the standard sample, human recombinant IL-6 (Genzyme) was used.

[5] = system: guinea pig intestine primary culture cells; assay: GLP-1 secretion from guinea pig intestine primary culture cells; format: cell-based; settings: test compound 10 μM, 90 min
Experimental: Colon mucous membrane of guinea pig (Hartley, male, Charles River Japan, Inc.) was removed and subjected to an enzyme treatment to give a cell dispersion according to the following method.
The enzyme solution used was obtained by dissolving 5 mg/ml Collagenase (Sigma), 5 mg/ml Hyaluronidase (Sigma) and 0.5 mg/ml DNaseI (Sigma) in a medium. The medium used was Dulbecco's Modified Eagle Medium (DMEM, Invitrogen) supplemented with 4.5 g/l Glucose, 5% FBS (Invitrogen), 100 units/ml Penicillin (Invitrogen), 100 μg/ml Streptomycin (Invitrogen), 50 μg/ml Gentamicin (Invitrogen) and 20 mM Hepes (pH 7.3). After digestion by the enzyme solution at 37° C., the tissue sections were prepared into dispersed cells by passing through a pipette 4 times and the cells were collected. The collected cells were washed with a buffer (incubation buffer) obtained by adding 5.5 mM Glucose and 0.1% BSA to a modified Krebs-Ringer bicarbonate buffer (KRBH, 116 mM NaCl, 4.7 mM KCl, 1.2 mM KH2PO4, 1.2 MM MgSO4, 2.5 mM CaCl2, 25 mM NaHCO3, 24 mM HEPES, pH 7.3), and preincubated at 37° C. under 5% CO2 for 30 min. 0.1 μM Phorbol ester (Wako), 1% DPPIV inhibitor (Linco) and a test compound were added to the above-mentioned incubation buffer, and the obtained buffer was added to the cells after the aforementioned preincubation and incubated for 90 min. The culture supernatant was collected and cryopreserved. The concentration of GLP-1 released in the culture supernatant was measured using an ELISA kit (Linco).

human TGR5 = target: T1, human TGR5 (Homo sapiens, UniProt Q8TDU6); assay: cAMP production increasing activity in human TGR5 expressing CHO cells; format: cell-based; settings: read-out: EC50 value (concentration necessary to make the cAMP production amount 50%)
T1 construct: expressed in transfected cells; host or cells: CHO cells
T1 sequence (Q8TDU6 1-330): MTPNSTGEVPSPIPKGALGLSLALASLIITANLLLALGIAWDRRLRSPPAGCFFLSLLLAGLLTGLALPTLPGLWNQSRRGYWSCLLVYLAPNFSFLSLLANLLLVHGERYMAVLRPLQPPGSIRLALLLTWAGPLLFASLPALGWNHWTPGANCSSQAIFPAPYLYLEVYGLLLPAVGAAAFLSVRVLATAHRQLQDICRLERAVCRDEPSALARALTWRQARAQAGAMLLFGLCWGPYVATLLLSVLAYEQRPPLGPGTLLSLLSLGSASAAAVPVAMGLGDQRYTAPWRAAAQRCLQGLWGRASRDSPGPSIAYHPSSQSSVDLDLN

Row | SMILES | cAMP production increasing activity (%) (NCI-H716 cells [1]) | GLP-1 secretion increase (%) (NCI-H716 cells [2]) | cAMP producing activity (control %) (guinea pig TGR5) | TNF α [3] [pg/mL] | IL-6 [4] [pg/mL] | GLP-1 (% relative to non-addition) [5] | EC50 (human TGR5) [nM]
1 | CC(=O)NCc1cccc(C2OC(CC(=O)NCc3ccccc3C(F)(F)F)C(=O)N(CC(C)(C)C)c3ccc(Cl)cc32)c1 (stereo not drawn) [Example 14, 2-[3,5-trans-5-[3-(acetylaminomethyl)phenyl]-7-chloro-1-neopentyl-2-oxo-1,2,3,5-tetrahydro-4,1-benzoxazepin-3-yl]-N-[2-(trifluoromethyl)benzyl]acetamide] | 104 | 157 | 76 | 83 | 260 | 167 % relative to non-addition | < 100
2 | O=S(=O)(c1cc(C(F)(F)F)cc(C(F)(F)F)c1)N1CCOc2nccc(-c3ccccc3)c2C1 [Example 22C, 4-{[3,5-bis(trifluoromethyl)phenyl]sulfonyl}-6-phenyl-2,3,4,5-tetrahydropyrido[3,2-f][1,4]oxazepine] | 100 | 127 | 101 | 66 | 170 | 313 % relative to non-addition | 
